Measurements taken from patent US10358435B2, “Triazolyl pyrimidinone compounds as PDE2 inhibitors” (Merck Sharp & Dohme Corp., priority 2015, dated 2019).
pKi: −log10 of the molar value.

What follows are compounds tested against human PDE2A1 (Homo sapiens (Human), UniProt O00408) (assay: IMAP fluorescence polarization assay, human PDE2A1 (PDE selectivity panel)). Details: not given.
Format: biochemical
Protocol: The activity of the compounds in accordance with the present invention as PDE2 inhibitors may be readily determined using a fluorescence polarization (FP) methodology (Huang, W., et al., J. Biomol Screen, 2002, 7: 215).
Dose-inhibition profiles for each compound were characterized by fitting the mP data to a four-parameter equation given below.
Selectivity for PDE2, as compared to other PDE families, was assessed using the IMAP® technology. Human PDE10A2 enzyme was prepared from cytosolic fractions of transiently transfected HEK cells. All other PDE's were GST Tag human enzyme expressed in insect cells and were obtained from BPS Bioscience (San Diego, Calif.): PDE1A (Cat#60010), human PDE2A1 (Cat#60020), PDE3A (Cat#60030), PDE4A1A (Cat#60040), PDE5A1 (Cat#60050), PDE6C (Cat#60060), PDE7A (Cat#60070), PDE8A1 (Cat#60080), PDE9A2 (Cat#60090), PDE11A4 (Cat#60110).
Assays for PDE 1 through 11 were performed in parallel at room temperature in 384-well microtiter plates with an incubation volume of 20.2 μL. Solutions of test compounds were prepared in DMSO and serially diluted with DMSO to yield 30 μL of each of ten solutions differing by 3-fold in concentration, at 32 serial dilutions per plate. […] A Labcyte POD 810 (Labcyte, Sunnyvale, Calif.) was used to dispense 200 nL from each well of the titration plate to make eleven copies of the assay plate for each titration, one copy for each PDE enzyme. A solution of each enzyme (dilution from aliquots, sufficient to produce 20% substrate conversion) and a separate solution of FAM-labeled cAMP or FAM-labeled cGMP from Molecular Devices (Sunnyvale, Calif., product # R7506 or cGMP#R7508), at a final concentration of 50 nM were made in the assay buffer (10 mM Tris HCl, pH 7.2, 10 mM MgCl2, 0.05% NaN3 0.01% Tween-20, and 1 mM DTT). Note that the substrate for PDE2 is 50 nM FAM cAMP containing 1000 nM of cGMP. The enzyme and the substrate were then added to the assay plates in two consecutive additions of 10 μL and then shaken to mix. The reaction was allowed to proceed at room temperature for 60 minutes. A binding solution was then made from the kit components, comprised of 80% Solution A, 20% Solution B and binding reagent at a volume of 1/600 the total binding solution. The enzymatic reaction was stopped by addition of 60 μL of the binding solution to each well of the assay plate. The plates were sealed and shaken for 10 seconds. The plates were incubated at room temperature for one hour, then the parallel and perpendicular fluorescence was measured using a Tecan Genios Pro plate reader (Tecan, Switzerland). The apparent inhibition constants for the compounds against all 11 PDE's was determined from the parallel and perpendicular fluorescent readings as described for PDE10 FP assay using the following apparent KM values for each enzyme and substrate combination: PDE1A (FAM cGMP) 70 nM, human PDE2A1 (FAM cAMP) 10,000 nM, PDE3A (FAM cAMP) 50 nM, PDE4A1A (FAM cAMP) 1500 nM, PDE5A1 (FAM cGMP) 400 nM, PDE6C (FAM cGMP) 700 nM, PDE7A (FAM cAMP) 150 nM, PDE8A1 (FAM cAMP) 50 nM, PDE9A2 (FAM cGMP) 60 nM, PDE10A2 (FAM cAMP) 150 nM, PDE11A4 (FAM cAMP) 1000 nM. The intrinsic PDE2 inhibitory activity of a compound which may be used in accordance with the present invention may be determined by these assays.

Sequence of human PDE2A1 (O00408 other isoform, or with tags, fused parts or gaps): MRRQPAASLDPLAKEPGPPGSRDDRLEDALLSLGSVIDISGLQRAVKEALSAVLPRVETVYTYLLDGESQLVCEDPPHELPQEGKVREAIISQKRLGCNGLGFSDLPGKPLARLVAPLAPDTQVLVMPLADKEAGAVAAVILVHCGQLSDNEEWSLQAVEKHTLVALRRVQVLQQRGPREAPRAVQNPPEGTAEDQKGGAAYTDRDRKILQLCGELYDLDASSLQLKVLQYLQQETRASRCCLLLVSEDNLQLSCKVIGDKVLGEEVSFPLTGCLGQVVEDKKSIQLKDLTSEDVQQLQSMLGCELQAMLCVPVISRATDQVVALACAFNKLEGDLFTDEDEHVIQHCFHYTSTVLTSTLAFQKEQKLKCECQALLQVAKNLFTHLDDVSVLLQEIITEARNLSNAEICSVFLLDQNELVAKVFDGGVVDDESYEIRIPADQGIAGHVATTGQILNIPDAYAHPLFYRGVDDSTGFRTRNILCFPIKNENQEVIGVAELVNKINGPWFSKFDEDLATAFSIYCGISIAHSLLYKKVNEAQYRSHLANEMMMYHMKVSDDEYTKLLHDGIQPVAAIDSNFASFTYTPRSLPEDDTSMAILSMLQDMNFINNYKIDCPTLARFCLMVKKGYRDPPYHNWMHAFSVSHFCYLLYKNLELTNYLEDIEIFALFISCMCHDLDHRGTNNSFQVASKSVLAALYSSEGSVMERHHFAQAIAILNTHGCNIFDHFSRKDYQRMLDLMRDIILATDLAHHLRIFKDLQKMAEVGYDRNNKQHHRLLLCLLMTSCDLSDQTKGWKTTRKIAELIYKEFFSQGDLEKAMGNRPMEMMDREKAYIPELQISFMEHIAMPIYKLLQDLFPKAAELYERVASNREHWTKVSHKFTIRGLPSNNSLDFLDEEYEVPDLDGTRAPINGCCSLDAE

Row | inhibition at 3 µM | Structure (SMILES)
1 | 33% | Cc1nc(-c2nnn3c2CCCC3c2ccc(C(F)(F)F)cc2F)cc(=O)[nH]1 (single isomer, unassigned) [Example 49, (R)- or (S)-6-(7-(2-fluoro-4-(trifluoromethyl)phenyl)-4,5,6,7-tetrahydro-[1,2,3]triazolo[1,5-a]pyridin-3-yl)-2-methylpyrimidin-4(3H)-one]
2 | 16% | Cc1nc(-c2nnc(C(C)c3ccc(C(F)(F)F)cc3F)n2C)cc(=O)[nH]1 (single isomer, unassigned) [Example 63, (R)- or (S)-6-(5-(1-(2-fluoro-4-(trifluoromethyl)-phenyl)ethyl)-4-methyl-4H-1,2,4-triazol-3-yl)-2-methylpyrimidin-4(3H)-one]
3 | 17% | Cc1nc(-c2nnc(C(C)c3ccc(C(F)(F)F)cc3Cl)n2C)cc(=O)[nH]1 (single isomer, unassigned) [Example 67, (R)- or (S)-6-(5-(1-(2-chloro-4-(trifluoromethyl)-phenyl)ethyl)-4-methyl-4H-1,2,4-triazol-3-yl)-2-methylpyrimidin-4(3H)-one]

Same assay, conditions: FAM cAMP 50 nM with 1000 nM cGMP

Row | pKi | Structure (SMILES)
4 | 7.42 | Cc1nc(-c2cn(C(c3ccc(C(F)(F)F)cc3F)C3CC3)nn2)cc(=O)[nH]1 (single isomer, unassigned) [Example 41]
5 | 8.01 | Cc1nc(-c2cn(C(c3ccc(C(F)(F)F)cc3F)C3CC3)nn2)cc(=O)[nH]1 (single isomer, unassigned) [Example 42]
6 | 8.34 | Cc1nc(-c2nnn([C@H](C)c3ccc(C(F)(F)F)cc3Cl)c2C)cc(=O)[nH]1 (single isomer, unassigned) [Example 43]
7 | 8.04 | CCCCc1c(-c2cc(=O)[nH]c(C)n2)nnn1C(C)c1ccc(C(F)(F)F)cc1Cl (single isomer, unassigned) [Example 45, (R)- or (S)-6-(5-butyl-1-(1-(2-chloro-4-(trifluoromethyl)phenyl)ethyl)-1H-1,2,3-triazol-4-yl)-2-methylpyrimidin-4(3H)-one]
8 | 5.96 | CCCCc1c(-c2cc(=O)[nH]c(C)n2)nnn1C(C)c1ccc(C(F)(F)F)cc1Cl (single isomer, unassigned) [Example 46, (S)- or (R)-6-(5-butyl-1-(1-(2-chloro-4-(trifluoromethyl)phenyl)ethyl)-1H-1,2,3-triazol-4-yl)-2-methylpyrimidin-4(3H)-one]
9 | 7.37 | Cc1nc(-c2nnn3c2CCC[C@H]3c2ccc(C(F)(F)F)cc2)cc(=O)[nH]1 (single isomer, unassigned) [Example 48]
10 | 7.68 | Cc1nc(-c2nnn3c2CCCC3c2ccc(C(F)(F)F)cc2F)cc(=O)[nH]1 (single isomer, unassigned) [Example 50, (S)- or (R)-6-(7-(2-fluoro-4-(trifluoromethyl)phenyl)-4,5,6,7-tetrahydro-[1,2,3]triazolo[1,5-a]pyridin-3-yl)-2-methylpyrimidin-4(3H)-one]
11 | 7.10 | Cc1nc(-c2nnn3c2CCCCC3c2ccc(C(F)(F)F)cc2)cc(=O)[nH]1 (single isomer, unassigned) [Example 51, (R)- or (S)-2-methyl-6-(8-(4-(trifluoromethyl)phenyl)-5,6,7,8-tetrahydro-4H-[1,2,3]triazolo[1,5-a]azepin-3-yl)pyrimidin-4(3H)-one]
12 | 6.86 | Cc1nc(-c2nnn3c2CCCCC3c2ccc(C(F)(F)F)cc2)cc(=O)[nH]1 (single isomer, unassigned) [Example 52, (S)- or (R)-2-methyl-6-(8-(4-(trifluoromethyl)phenyl)-5,6,7,8-tetrahydro-4H-[1,2,3]triazolo[1,5-a]azepin-3-yl)pyrimidin-4(3H)-one]
13 | 7.79 | Cc1nc(-c2nnn3c2CCC[C@@]3(C)c2ccc(C(F)(F)F)cc2)cc(=O)[nH]1 (single isomer, unassigned) [Example 54]
14 | 6.63 | Cc1nc(-c2nnn3c2CCC[C@@]3(C)c2ccc(C(F)(F)F)cc2)cc(=O)[nH]1 (single isomer, unassigned) [Example 55]
15 | 6.21 | CCC1(c2ccc(C(F)(F)F)cc2)CCCc2c(-c3cc(=O)[nH]c(C)n3)nnn21 (single isomer, unassigned) [Example 56, (R)- or (S)-6-(7-ethyl-7-(4-(trifluoromethyl)phenyl)-4,5,6,7-tetrahydro-[1,2,3]triazolo[1,5-a]pyridin-3-yl)-2-methylpyrimidin-4(3H)-one]
16 | 7.54 | CCC1(c2ccc(C(F)(F)F)cc2)CCCc2c(-c3cc(=O)[nH]c(C)n3)nnn21 (single isomer, unassigned) [Example 57, (S)- or (R)-6-(7-ethyl-7-(4-(trifluoromethyl)phenyl)-4,5,6,7-tetrahydro-[1,2,3]triazolo[1,5-a]pyridin-3-yl)-2-methylpyrimidin-4(3H)-one]
17 | 8.89 | Cc1nc(-c2nnn3c2CCCC3(C)c2ccc(C(F)(F)F)cc2F)cc(=O)[nH]1 (single isomer, unassigned) [Example 58, (R)- or (S)-6-(7-(2-fluoro-4-(trifluoromethyl)phenyl)-7-methyl-4,5,6,7-tetrahydro-[1,2,3]triazolo[1,5-a]pyridin-3-yl)-2-methylpyrimidin-4(3H)-one]
18 | 6.75 | Cc1nc(-c2nnn3c2CCCC3(C)c2ccc(C(F)(F)F)cc2F)cc(=O)[nH]1 (single isomer, unassigned) [Example 59, (S)- or (R)-6-(7-(2-fluoro-4-(trifluoromethyl)phenyl)-7-methyl-4,5,6,7-tetrahydro-[1,2,3]triazolo[1,5-a]pyridin-3-yl)-2-methylpyrimidin-4(3H)-one]
19 | 7.28 | Cc1nc(-c2nnc(C(C)c3ccc(C(F)(F)F)cc3F)[nH]2)cc(=O)[nH]1 (single isomer, unassigned) [Example 61, (R)- or (S)-6-(5-(1-(2-fluoro-4-(trifluoromethyl)-phenyl)ethyl)-4H-1,2,4-triazol-3-yl)-2-methylpyrimidin-4(3H)-one]
20 | 6.41 | Cc1nc(-c2nnc(C(C)c3ccc(C(F)(F)F)cc3F)[nH]2)cc(=O)[nH]1 (single isomer, unassigned) [Example 62, (S)- or (R)-6-(5-(1-(2-fluoro-4-(trifluoromethyl)-phenyl)ethyl)-4H-1,2,4-triazol-3-yl)-2-methylpyrimidin-4(3H)-one]
21 | 7.63 | Cc1nc(-c2nnc(C(C)c3ccc(C(F)(F)F)cc3F)n2C)cc(=O)[nH]1 (single isomer, unassigned) [Example 64, (S)- or (R)-6-(5-(1-(2-fluoro-4-(trifluoromethyl)-phenyl)ethyl)-4-methyl-4H-1,2,4-triazol-3-yl)-2-methylpyrimidin-4(3H)-one]
22 | 7.80 | Cc1nc(-c2nnc(C(C)c3ccc(C(F)(F)F)cc3Cl)[nH]2)cc(=O)[nH]1 (single isomer, unassigned) [Example 65, (R)- or (S)-6-(5-(1-(2-chloro-4-(trifluoromethyl)-phenyl)ethyl)-4H-1,2,4-triazol-3-yl)-2-methylpyrimidin-4(3H)-one]
23 | 6.28 | Cc1nc(-c2nnc(C(C)c3ccc(C(F)(F)F)cc3Cl)[nH]2)cc(=O)[nH]1 (single isomer, unassigned) [Example 66, (S)- or (R)-6-(5-(1-(2-chloro-4-(trifluoromethyl)-phenyl)ethyl)-4H-1,2,4-triazol-3-yl)-2-methylpyrimidin-4(3H)-one]
24 | 8.11 | Cc1nc(-c2nnc(C(C)c3ccc(C(F)(F)F)cc3Cl)n2C)cc(=O)[nH]1 (single isomer, unassigned) [Example 68, (S)- or (R)-6-(5-(1-(2-chloro-4-(trifluoromethyl)-phenyl)ethyl)-4-methyl-4H-1,2,4-triazol-3-yl)-2-methylpyrimidin-4(3H)-one]
25 | 7.27 | Cc1nc(-c2nnc3n2CCC[C@H]3c2ccc(C(F)(F)F)cc2)cc(=O)[nH]1 (single isomer, unassigned) [Example 70]
